Several values for one entry are separate records, joined by “and”; a condition that tells them apart may be missing. Equal values may be shown once. Entries after “also recorded” stand apart in the source; their conditions may differ.
Assays:
stage 3 immature neurons = assay: HD-DoE 8-factor experiment for stage 4 recipe (FIG. 27, 28, 31); type: cell-based, human; conditions: for impact on expression of NR4A2: 8-factor model / dynamic profile; for expression level of PITX3 in absence of the factor / expression level of NR4A2 in absence of the factor: stage 4 recipe, other factors present; for expression level of PITX3 in absence of the factor: 40 with all factors; for expression level of NR4A2 in absence of the factor: 400 with all factors
Experimental: To further differentiate the cells to a mature neuronal identity, additional HD-DoE experiments were performed on the cells that were cultured in stage 1, stage 2 and stage 3 differentiation media. After 4 days, gene expression of cells in different combinatorial conditions were investigated. At this time, we focused on maximal expression of more mature dopaminergic genes such as NR4A2, PITX3 and TH (Tiklová et al. (2020) Nat Commun. 11:2434; Fiorenzano et al. (2021) Nat Commun., 12:7302). In one model, cells were treated with a combinatorial matrix with eight inputs including CHIR99021, BDNF, GDNF, Rosiglitazone, GW7647, DBZ and heparin.
(§1) To assess the impact of elimination of each validated factor identified in Example 5 for the stage 3 and stage 4 recipes, we used dynamic profile analysis and compared the expression level of genes of interest in absence of each finalized factor while others are present.
In the stage 4 recipe, each of six finalized factors were excluded while other factors were present and the expression levels of NR4A2 and PITX3 were assessed compared to the presence of all factors.

[1] = tested on: stage 1 neural stem cells; assay: HD-DoE 12-factor experiment for stage 2 recipe (first model, FIG. 5-7, 12); type: cell-based, human; conditions: dynamic profile / model, 12 effectors
Description: To further guide the differentiation of midbrain-committed neural stem cells to neural progenitor cells at stage 2, we performed an additional HD-DoE experiment. We thereby obtained additional gene regulatory models that were used for preparation of differentiation protocol. The basis of this was a 12-factor HD-DoE experiment with focus on initiation of differentiation of cells toward midbrain neural progenitor cells for an additional 3 days after termination of stage 1 treatment. Here, we focused on expression of LMX1A and FOXA2 in neural progenitor cells with low to zero expression of GBX2. LMX1A had significant high expression level in the model with value of 47888. Therefore, we used optimization setting for this gene to identify the positive factors. The factors in this experiment included SC79, MK2206, ZM336372, PD0325901, CHIR99021, A 83-01, TTNPB, AGN193109, GW3965, SR9243, Purmorphamine and GSI-XX.
(§2) To assess the impact of elimination of each validated factor, we used dynamic profile analysis and compared the expression level of genes of interest in absence of each finalized factor while others are present.
(§3) In the stage 2 recipe, each of the six finalized factors were removed while the other five factors were present and the expression levels of FOXA2, LMX1A and GBX2 were assessed, compared to the levels in the presence of all factors. According to the first experiment model, the absence of TTNPB lead to a rise of GBX2 expression, while the value of FOXA2 and LMX1A reduced drastically from 10,000 to 0 and 30,000 to 15,000, respectively. The absence of A 83-01 reduced the expression of FOXA2 from 10,000 to 7000, however, as expected, the value of LMX1A increased from 30,000 to 40,000. […] According to the second experiment model, the absence of BMP7 and MK2206 both reduced the level of FOXA2 while increasing the value of LMX1A, with BMP7 as the main effector that led to 0 expression of FOXA2.

[2] = tested on: stage 1 neural stem cells; assay: HD-DoE 12-factor experiment for stage 2 recipe (second model, FIG. 8-10, 13); type: cell-based, human; conditions: for impact on GBX2 / impact on expression of FOXA2 / impact on expression of LMX1A: dynamic profile, 12 effectors; for level of FOXA2 in absence of the factor / level of LMX1A in absence of the factor: stage 2 recipe, second experiment model; for level of LMX1A in absence of the factor: 4000 with all factors
Experimental: To test additional factors like FGF8 that is routinely used in midbrain differentiation protocols, we ran another 12-factor experiment consisting of LDN193189, BMP7, A 83-01, Activin A, Takinib, PD0325901, MK2206, FGF8b, AZD3147, MHY1485, GSI-XX and Yhhu 3792. Similar to the previous experiment, hiPSCs were treated with stage 1 media for 3 days and then treated with 96 conditions of combinations of the factors for an additional 3 days. When this model was optimized for maximum expression of FOXA2, BMP7 with factor contribution of 13.7 and MK2206 with 14.2 had the most impact on its expression followed by AZD 3147 with factor contribution of 10.9.
as §2, §3

[3] = tested on: human pluripotent stem cells; assay: HD-DoE 13-factor experiment for stage 1 recipe, gene expression modeled after 3-day treatment; dynamic profile and factor criticality analysis; type: cell-based
Description: This example utilizes a method of High-Dimensional Design of Experiments (HD-DoE), as previously described in Bukys et al. (2020) Iscience 23:101346. The method employs computerized design geometries to simultaneously test multiple process inputs and offers mathematical modeling of a deep effector/response space. The method allows for finding combinatorial signaling inputs that control a complex process, such as during cell differentiation. It allows testing of multiple plausible critical process parameters, as such parameters impact output responses, such as gene expression. Because gene expression provides hallmark features of the phenotype of, for example, a human cell, the method can be applied to identify, and understand, which signaling pathways control cell fate. In the current example, the HD-DOE method was applied with the intent to find conditions for induction of midbrain neural progenitor-expressed genes, directly from the pluripotent stem cell state.
To develop the recipe for each stage, the impact of agonists and antagonists of multiple signaling pathways (referred to herein as “effectors”) on the expression of two sets of 53 pre-selected genes after a 3-day treatment was tested and modeled. These effectors are small molecules or proteins that are commonly used during stepwise differentiation of stem cells to specific fates. The choice of the effectors to test was based on current literature on neural induction in the midbrain region of the developing brain and differentiation of stem cells to neural progenitors.
To test the effectors, experiments with at least 8 factors were designed that can assess the response of cells to 48 or more different combinations of effectors in a range of concentrations. To analyze the models, we focused on expression of genes expressed in the midbrain region, including OTX2, DMBX1, FOXA2, LMX1A, and on the absence of GBX2, which is a hindbrain marker. The impact of each effector on gene expression level is defined by a parameter called factor contribution that is calculated for each effector during the modeling.
To identify the recipe of stage 1 of differentiation, cells were treated with various effectors for 3 days and the gene expression of cells was modeled. […] This model consisted of 13 factors including LDN193189, PD173074, BLU9931, Purmorphamine, SC79, MK2206, ZM336372, PD0325901, CHIR99021, XAV939, UCLA-gp130, Tofacitinib and GO 6983.
as §2
In the stage 1 recipe, each of the five finalized factors were removed while the other four factors were present and the expression levels of OTX2, DMBX1, FOXA2 and LMX1A was assessed compared to the levels in the presence of all five factors (FIG. 11A-B). […] Expression level of DMBX1 increased in absence of LDN193189, however values of OTX2, FOXA2 and LMX1A decreased.

[4] = tested on: stage 2 neural progenitors; assay: HD-DoE 12-factor model for stage 3 recipe (FIG. 19-23, 29); type: cell-based, human
Description: To develop the neuronal differentiation recipes, the impact of various agonist and antagonists (effectors) on maturation of MB neural progenitors was investigated using the HD-DoE method described in Example 1. These effectors were chosen based on available literature on developmental biology, differentiation of stem cells as well as mouse and human single cell RNA-seq data from midbrain neurons at the time.
To engineer the recipe of stage 3 of differentiation, cells were first cultured in the stage 1 and stage 2 media as described herein, then they were treated with combinations of 8 or 12 factors for 3 days and the gene expression of cells in each condition was modeled. To guide the cells towards a subtype of midbrain dopaminergic neurons that reside in Substantia Nigra pars compacta (SNc) region of the brain, neural progenitors need to be SOX6^+ (Pereira et al. (2021) Cell Rep. 37:109975 Oosterveen et al. (2021) Stem Cell Reports 16:2718-2735 Poulin et al. (2020) Trends Neurosci. 43:155-169). CORIN, NGN2 and MSX1 are other markers involved in neurogenesis of dopaminergic neurons originating from floorplate region of developing midbrain (Wang et al. (2020) Cells 9:1489; Samata et al. (2016) Nat Commun. 7:13097; Ono et al. (2007) Development 134:3213-3225; Prakash et al. (2006) J. Physiol. 575:403410).
Therefore, we focused on maximizing expression of SOX6, CORIN, NGN2 and MSX1 in modeling experiments. One of the 12-factor models, the results of which are shown in FIG. 19, including LDN193189, AGN193109, BMP7, TTNPB, PD0325901, A8301, MHY1485, CHIR99021, XAV939, SANT-1, Purmorphamine and MK2206, provided a combination set that could maximize expression level of CORIN to more than 2000.
as §1
In the stage 3 recipe, each of the finalized factors were removed in their respective models while other factors were present and the expression level of genes of interest was assessed compared to presence of all factors. When AGN193109 was excluded, level of all CORIN, KCNJ6, MSX1 and SOX6 decreased from 900 to 450, 50 to 35, 140 to 110 and 105 to 60, respectively. […] When PD0325901 was removed, expression levels of CORIN and KCNJ6 increased to 1200 and 70 while levels of MSX1 and SOX6 decreased to 105 and 20. In the absence of CHIR99021, the expression level of CORIN was again increased to 1200 while the level of KCNJ6 and MSX1 dropped to 50 and 115. […] Therefore, it was decided to include this compound in the final recipe. […] Therefore, CHIR99021 was also included in the final recipe.

[5] = model optimized for maximum expression of FOXA2, positive impact

Q: How did the factor contribution (stage 3 immature neurons; model maximized for NR4A2, negative impact) turn out when CN(CCOc1ccc(CC2SC(=O)NC2=O)cc1)c1ccccn1 (stereo not drawn) [Rosiglitazone] was run?
A: 13.6

Q: With CC(C)(Sc1ccc(CCN(CCCCC2CCCCC2)C(=O)NC2CCCCC2)cc1)C(=O)O [GW7647] as the molecule, how does the “impact on expression of NR4A2” value (stage 3 immature neurons) read?
A: positive regulatory impact

Q: What about the “expression level of PITX3 in absence of the factor” value (stage 3 immature neurons) of the same molecule?
A: lower expression levels

Q: And the “expression level of NR4A2 in absence of the factor” value (stage 3 immature neurons)?
A: lower expression levels

Q: Which results are given for NC1(c2ccc(-c3nc4ccn5c(=O)[nH]nc5c4cc3-c3ccccc3)cc2)CCC1 [MK2206]?
A: impact on expression of FOXA2 [1]: positive impact; impact on GBX2 [2]: desirable impact; impact on expression of FOXA2 [2]: desirable impact; also recorded: positive impact; impact on expression of LMX1A [2]: decreases; factor contribution [2, 5]: 14.2; factor contribution ([2]; model optimized for maximum expression of LMX1A, positive impact): 12; level of FOXA2 in absence of the factor [2]: reduced; level of LMX1A in absence of the factor [2]: increasing; impact on expression of OTX2 ([3]; dynamic profile, 13 effectors): positive impact; factor contribution ([3]; model optimized for maximum expression of OTX2, positive impact, 3-day treatment): 22.3; expression level of LMX1A in absence of the factor ([3]; stage 1 recipe, other four factors present, 300 with all five factors): stayed the same; expression level of FOXA2 in absence of the factor ([3]; stage 1 recipe, other four factors present, 600 with all five factors): stayed the same; expression level of DMBX1 in absence of the factor ([3]; stage 1 recipe, other four factors present, 3000 with all five factors): 1500; expression level of OTX2 in absence of the factor ([3]; stage 1 recipe, other four factors present, 12000 with all five factors): 9500

Q: How did the “impact on expression of NR4A2” value (stage 3 immature neurons) turn out when NCCc1ccc(O)c(O)c1 [Dopamine] was run?
A: positive regulatory impact

Q: And the “expression level of PITX3 in absence of the factor” value (stage 3 immature neurons)?
A: 20

Q: What about the “expression level of NR4A2 in absence of the factor” value (stage 3 immature neurons) of the same molecule?
A: ~0

Q: COc1cccc(Oc2cccc3nc(Nc4ccc(C(C)C)cc4)nc(N)c23)c1 [Yhhu 3792] was tested. Which “impact on GBX2” value [2] did it give?
A: positive effect

Q: And the “impact on expression of LMX1A” value [2]?
A: considerable negative effect

Q: And the factor contribution ([2]; model optimized for LMX1A, negative impact)?
A: 11.7

Q: What does the source list for heparin?
A: impact on expression of NR4A2 (stage 3 immature neurons): positive regulatory impact; expression level of PITX3 in absence of the factor (stage 3 immature neurons): 30; expression level of NR4A2 in absence of the factor (stage 3 immature neurons): did not significantly change

B1: BMP7: BMP agonist (protein, UniProt P18075 293-431, looked up)
Bone morphogenetic protein 7: STGSKQRSQNRSKTPKNQEALRMANVAENSSSDQRQACKKHELYVSFRDLGWQDWIIAPEGYAAYYCEGECAFPLNSYMNATNHAIVQTLVHFINPETVPKPCCAPTQLNAISVLYFDDSSNVILKKYRNMVVRACGCH
Q: What does the source list for B1?
A: impact on expression of FOXA2 [2]: significant positive impact; impact on expression of LMX1A [2]: did not reduce; factor contribution [2, 5]: 13.7; level of FOXA2 in absence of the factor [2]: 0; level of LMX1A in absence of the factor [2]: increasing; factor contribution ([4]; model maximizing expression of CORIN, positive regulatory impact): high positive factor contributions; factor contribution ([4]; model optimized for maximum expression of KCNJ6, positive regulators): low factor contributions; factor contribution ([4]; model optimized for maximum expression of MSX1, positive impact): 11.1 and 11.06; expression level of KCNJ6 in absence of the factor ([4]; stage 3 recipe, other factors present, 50 with all factors): did not have a significant change; expression level of SOX6 in absence of the factor ([4]; stage 3 recipe, other factors present, 105 with all factors): did not have a significant change; expression level of MSX1 in absence of the factor ([4]; stage 3 recipe, other factors present, 140 with all factors): 100; expression level of CORIN in absence of the factor ([4]; stage 3 recipe, other factors present, 900 with all factors): 500

From patent US20240117303A1, “METHODS AND COMPOSITIONS FOR GENERATING HUMAN MIDBRAIN DOPAMINERGIC NEURONS FROM NEURAL PROGENITOR CELLS” (Trailhead Biosystems Inc., priority 2022, published 2024)
